# Values quoted from earlier work, collected in PMC9762682, “Tocotrienols: Exciting Biological and Pharmacological Properties of Tocotrienols and Naturally Occurring Compounds, Part II” (Annals of clinical case reports, 2022).
# pIC50: −log10 of the molar value. Like-named read-outs stand apart in the source and are kept apart here.
# What was measured:
# TNF-α = conditions: LPS-induced macrophages of PPAR-α knockout female mice
# plasma miRNAs = test system: plasma miRNAs; design: method as in ref 14 = [14]; PMID 27493840; doi:10.4172/2155-9880.1000434; 14. Qureshi AA , Khan DA , Saleem S , Silswal N , Trias AM , Tan B , Pharmacokinetics and bioavailability of Annatto δ-tocotrienol in healthy fed subjects . J Clin Exp Cardiol . 2015; 6 : 11 . 10.417; conditions: for plasma miR122a / plasma miR-1 / plasma miR-7 / plasma miR-9 / plasma miR-15b / plasma miR-17-5p / plasma miR-19a / plasma miR-19b / plasma miR-24 / plasma miR-26a / plasma miR-34a / plasma miR-106a / plasma miR-107 / plasma miR-132 / plasma miR-143 / plasma miR-145 / plasma miR-148a / plasma miR-181a / plasma miR-182 / plasma miR-192 / plasma miR-194 / plasma miR-196a / plasma miR-199a / plasma miR-204 / plasma miR-205 / plasma miR-222 / plasma miR-342: 0-h = 100
# Pancreas cancer cells = test system: Pancreas cancer cells; design: method as in PMID 29606130
# Melanoma cells = test system: Melanoma cells; design: method as in PMID 29606130
# [1] = δ-tocotrienol treatment, pharmacokinetic study
compound,measurement,setting,value
CC(C)=CCC/C(C)=C/CC/C(C)=C/CC[C@]1(C)CCc2cc(O)cc(C)c2O1 [δ-Tocotrienol],effect on secretion of TNF-α,TNF-α,activation
same,plasma miR122a,"plasma miRNAs; 3-h, 125 mg δ-tocotrienol",166%
same,plasma miR-1,"plasma miRNAs; 3-h, 125 mg δ-tocotrienol",78%
same,plasma miR-7,"plasma miRNAs; 3-h, 125 mg δ-tocotrienol",94%
same,plasma miR-9,"plasma miRNAs; 3-h, 125 mg δ-tocotrienol",88%
same,plasma miR-15b,"plasma miRNAs; 3-h, 125 mg δ-tocotrienol",110%
same,plasma miR-17-5p,"plasma miRNAs; 3-h, 125 mg δ-tocotrienol",106%
same,plasma miR-19a,"plasma miRNAs; 3-h, 125 mg δ-tocotrienol",95%
same,plasma miR-19b,"plasma miRNAs; 3-h, 125 mg δ-tocotrienol",91%
same,plasma miR-24,"plasma miRNAs; 3-h, 125 mg δ-tocotrienol",77%
same,plasma miR-26a,"plasma miRNAs; 3-h, 125 mg δ-tocotrienol",80%
same,plasma miR-34a,"plasma miRNAs; 3-h, 125 mg δ-tocotrienol",72%
same,plasma miR-106a,"plasma miRNAs; 3-h, 125 mg δ-tocotrienol",74%
same,plasma miR-107,"plasma miRNAs; 3-h, 125 mg δ-tocotrienol",156%
same,plasma miR-132,"plasma miRNAs; 3-h, 125 mg δ-tocotrienol",199%
same,plasma miR-143,"plasma miRNAs; 3-h, 125 mg δ-tocotrienol",63%
same,plasma miR-145,"plasma miRNAs; 3-h, 125 mg δ-tocotrienol",54%
same,plasma miR-148a,"plasma miRNAs; 3-h, 125 mg δ-tocotrienol",208%
same,plasma miR-181a,"plasma miRNAs; 3-h, 125 mg δ-tocotrienol",48%
same,plasma miR-182,"plasma miRNAs; 3-h, 125 mg δ-tocotrienol",76%
same,plasma miR-192,"plasma miRNAs; 3-h, 125 mg δ-tocotrienol",28%
same,plasma miR-194,"plasma miRNAs; 3-h, 125 mg δ-tocotrienol",50%
same,plasma miR-196a,"plasma miRNAs; 3-h, 125 mg δ-tocotrienol",65%
same,plasma miR-199a,"plasma miRNAs; 3-h, 125 mg δ-tocotrienol",81%
same,plasma miR-204,"plasma miRNAs; 3-h, 125 mg δ-tocotrienol",45%
same,plasma miR-205,"plasma miRNAs; 3-h, 125 mg δ-tocotrienol",39%
same,plasma miR-222,"plasma miRNAs; 3-h, 125 mg δ-tocotrienol",55%
same,plasma miR-342,"plasma miRNAs; 3-h, 125 mg δ-tocotrienol",70%
same,plasma miR122a,"plasma miRNAs; 6-h, 500 mg δ-tocotrienol",196%
same,plasma miR-1,"plasma miRNAs; 6-h, 500 mg δ-tocotrienol",63%
same,plasma miR-7,"plasma miRNAs; 6-h, 500 mg δ-tocotrienol",85%
same,plasma miR-9,"plasma miRNAs; 6-h, 500 mg δ-tocotrienol",44%
same,plasma miR-15b,"plasma miRNAs; 6-h, 500 mg δ-tocotrienol",132%
same,plasma miR-17-5p,"plasma miRNAs; 6-h, 500 mg δ-tocotrienol",168%
same,plasma miR-19a,"plasma miRNAs; 6-h, 500 mg δ-tocotrienol",36%
same,plasma miR-19b,"plasma miRNAs; 6-h, 500 mg δ-tocotrienol",70%
same,plasma miR-24,"plasma miRNAs; 6-h, 500 mg δ-tocotrienol",45%
same,plasma miR-26a,"plasma miRNAs; 6-h, 500 mg δ-tocotrienol",62%
same,plasma miR-34a,"plasma miRNAs; 6-h, 500 mg δ-tocotrienol",59%
same,plasma miR-106a,"plasma miRNAs; 6-h, 500 mg δ-tocotrienol",56%
same,plasma miR-107,"plasma miRNAs; 6-h, 500 mg δ-tocotrienol",173%
same,plasma miR-132,"plasma miRNAs; 6-h, 500 mg δ-tocotrienol",145%
same,plasma miR-143,"plasma miRNAs; 6-h, 500 mg δ-tocotrienol",36%
same,plasma miR-145,"plasma miRNAs; 6-h, 500 mg δ-tocotrienol",44%
same,plasma miR-148a,"plasma miRNAs; 6-h, 500 mg δ-tocotrienol",233%
same,plasma miR-181a,"plasma miRNAs; 6-h, 500 mg δ-tocotrienol",21%
same,plasma miR-182,"plasma miRNAs; 6-h, 500 mg δ-tocotrienol",64%
same,plasma miR-192,"plasma miRNAs; 6-h, 500 mg δ-tocotrienol",21%
same,plasma miR-194,"plasma miRNAs; 6-h, 500 mg δ-tocotrienol",21%
same,plasma miR-196a,"plasma miRNAs; 6-h, 500 mg δ-tocotrienol",43%
same,plasma miR-199a,"plasma miRNAs; 6-h, 500 mg δ-tocotrienol",65%
same,plasma miR-204,"plasma miRNAs; 6-h, 500 mg δ-tocotrienol",41%
same,plasma miR-205,"plasma miRNAs; 6-h, 500 mg δ-tocotrienol",45%
same,plasma miR-222,"plasma miRNAs; 6-h, 500 mg δ-tocotrienol",51%
same,plasma miR-342,"plasma miRNAs; 6-h, 500 mg δ-tocotrienol",52%
same,"expression of miR-107, miR-122a, and miR-132",plasma miRNAs; [1],up-regulated
same,gene expression of miR-34a,plasma miRNAs; [1],down-regulated
same,pIC50,Pancreas cancer cells,5.00
same,percentage of control at IC50 dose,Pancreas cancer cells,36%
same,effective dose,Pancreas cancer cells; 48 h,20 µM
same,percentage of control at effective dose,Pancreas cancer cells; 48 h,5%
same,pIC50,Melanoma cells,5.00
same,effective dose,Melanoma cells,20 µM
same,percentage of control at IC50 dose,Melanoma cells,50%
same,percentage of control at effective dose,Melanoma cells,37%
